Measurements published in the NIST ThermoML archive (doi:10.1021/je0502391).
± gives the expanded uncertainty stated by the source.

Conditions: 298.15 K; 101.33 kPa; Liquid

| SMILES | mass density [kg/m3] |
| --- | --- |
| C=C1CC[C@H]2C[C@@H]1C2(C)C [(1S,5S)-6,6-dimethyl-2-methylenebicyclo[3.1.1]heptane] | 866.84 ± 0.62 |
| CCCCCCCCCCCC [dodecane] | 745.41 ± 0.78 |
| CO [methanol] | 786.62 ± 0.31 |
| Cc1ccccc1 [toluene] | 862.35 ± 0.24 |

Second part, the compound after the results:

| mass density [kg/m3] | SMILES |
| --- | --- |
| 837.31 ± 1.3 | C=C(C)[C@H]1CC=C(C)CC1 [(R)-1-methyl-4-(1-methylethenyl)cyclohexene] |
| 853.88 ± 0.63 | CC1=CC[C@H]2C[C@@H]1C2(C)C [(S)-2-pinene] |
